Here are results for 11 compounds from patent publication US8232273B2, “Heterocyclic compounds and methods of use” (Genentech, Inc., priority 2008, dated 2012).

One assay concerns the target T1, Bcl-2 (GST-Bcl-2) (Homo sapiens, UniProt P10415).
T1 construct: made in house
Briefly: TR-FRET binding assay, competition with F-Bak for the Bcl-2 binding site. To be noted: Bcl-2, for comparison (selectivity). As for the experimental part: For each assay plate, a probe/antibody and protein/antibody/probe mixture were included as a negative and a positive control, respectively. Fluorescence was measured on the Envision (Perkin Elmer) using a 340/35 nm excitation filter and 520/525 (F-Bak) and 495/510 nm (Tb-labeled anti-his antibody) emission filters. Dissociation constants (Ki) were determined using Wang's equation (see, Wang, Z. X. An exact mathematical expression for describing competitive binding of two different ligands to a protein molecule. FEBS Lett. 1995 360:111-114). The TR-FRET assay can be performed in the presence of varying concentrations of human serum (HS) or fetal bovine serum (FBS). For comparison, the measurement of the competition of compounds of the invention for other Bcl-2 family protein binding sites (e.g., Bcl-2, Mcl-1) using the TR-FRET binding assay was accomplish by substituting GST-Bcl-xL in the TR-FRET assay with other GST-labeled protein, e.g., GST-Bcl-2, GST-Mcl-1, prepared in-house.
(In general: TR-FRET usually uses a lanthanide donor and a delayed reading to cut background.)

For the next assay, the target named is Bcl-xL (GST-Bcl-xL) (Homo sapiens, UniProt Q07817). Description: TR-FRET binding assay, competition with F-Bak for the Bcl-xL binding site. To be noted: values listed in the order of Table 1, read-out: TR-FRET assay results (Ki), Bcl-xL.
Assay [1] concerns Mcl-1-/- mouse embryonic fibroblasts (MEF). Briefly: Cell viability assay for Mcl-1-/- mouse embryonic fibroblasts (CellTiter-Glo). Type of assay: cell-based. To be noted: Fibroblast, in the presence of 10% Fetal Bovine Serum, read-out: MEF Mcl-1-/- KO cell viability results (EC50). The text has this: a. Cell Viability Assay for Mcl-1^−/− Mouse Embryonic Fibroblasts (MEF): […]
In this assay, Mcl-1^(−/−) cells were used to confirm that cell apoptosis in the presence of BH3 mimetic small molecules was due to predominantly Bcl-xL inactivation. This inactivation leaves Bax/Bak unconstrained and results in apoptosis. The […]-GLO Luminescent Cell Viability Assay is a homogeneous method of determining the number of viable cells in culture based on quantitation of the ATP present. The amount of ATP correlates with the presence of metabolically active cells such that following cell lysis the amount of ATP present is proportional to the amount of luminescence measured.
Mcl-1^(−/−) mouse embryonic fibroblasts (MEFs) are an adherent cell line prepared in house. MEFs were grown in Iwaki 75 cm^2 tissue culture flasks (cat #3123-075) with FMA media which consists of • 89% DME Kelso • 10% heat-inactivated foetal calf serum (FCS) (Hyclone cat #SH30396.03) • 1% 10 mM asparagine (Fluka cat #11149) • 275 μl of a 1:2000 dilution of 2-mercaptoethanol is added to the final 500 ml volume of FMA (Sigma cat #M7522; diluted in MT-PBS)
FMA was stored at 4° C. and used at 37° C. MEFs were cultured in FMA media and harvested in MT-PBS and trypsin. For MEF cell viability assays, cells were seeded separately in plates with 10% FCS-FMA and 1% FCS-FMA.
Assays were performed using white, flat clear-bottom Greiner 384-well tissue culture grade (Interpath #781098) plates. The compounds were made up in Matrical 384-well, 25 μl V-bottomed plates (cat #MP101-2-PP), sealed with aluminium foil from Beckman Coulter (cat #538619) and stored at 12° C. overnight. Compound preparation and titrations were performed in AnalaR grade DMSO (Merck cat #1.02952.2500). The cell viability detection assay used was […]-GLO™ which is commercially available from Promega (cat #G7572), stored at −20° C. and used at 37° C.
Compounds of the invention were prepared as 10 mM solution in 100% DMSO and stored at −20° C. Compounds were thawed to room temperature and dispensed into a 384 well Matrical plate. Standard control compounds, e.g. 32.3 mM Etoposide, were added to the plate as controls.
The media was aspirated and the Mcl-1^(−/−) cells washed with 10 mls of warmed MT-PBS. MT-PBS was aspirated and 1 ml of trypsin was added. The T75 flasks were incubated at 37° C. until the cells became detached. 4 ml of 10% FCS FMA media was added to the trypsinized cells and the entire volume was transferred to a 50 ml centrifuge tube and centrifuged for 3 minutes at 250 g. The supernatant was aspirated and the pellet resuspended in 10 ml of 10% FCS FMA. 3 ml of this cell suspension was added to a clean 75 cm^2 flask containing 17 ml of 10% FCS FMA media, thus performing a 3:10 split. The remaining cell suspension was used to perform a 1:50 split into another 75 cm^2 flask for further culturing.
Cells were harvested as per method step 1 and the pellet resuspended in 3 mls 10% FCS FMA. Cell number was determined by counting in a Neubauer haemocytometer and the dilution calculated to achieve a density of 1×10^4 cells ml^−1 (500 cells per well in 50 μl media). Separate dilutions were prepared in 50 ml 10% FCS FMA and 50 ml 1% FCS FMA solutions respectively.
Four assay plates were set up per compound plate. Two 384 well plates containing Mcl-1^(−/−) cells in 10% FCS FMA and the other two plates containing Mcl-1^(−/−) cells in 1% FCS FMA.
Using the Multidrop, 25 μl cells were dispensed aseptically into all 384 wells of the assay plates. Plates were left to rest in a non-stacked layer at room temperature for approximately 30 minutes (minimizes edge-effects) and then were placed as a single layer in the 37° C. incubator. The plates were left to incubate overnight.
The compound plates were titrated by performing a 3-fold 11-point dilution series using 100% DMSO on the MiniTrak. Following titration of the compounds, 100 nl of compounds were added to the cell plates using the Zymark Sciclone Pintool. […]
On the technique in general: Cellular ATP, detected with luciferase, serves as a proxy for viable cell number.

Another assay concerns platelets. Briefly: Cell viability assay for platelets (platelet rich plasma, CellTiter-Glo). To be noted: approximately 4 hours at 37 C. Type of assay: cell-based. On the procedure: Platelet rich plasma (PRP) was incubated with a compound of the invention for approximately 4 hours at 37° C. After incubation, platelets were equilibrated to room temperature for 20 minutes and then and equal volume of CELL TITER-GLO™ reagent (Promega Corporation) was added. Samples were mixed for two minutes and then allowed to equilibrate for an additional 10 minutes at room temperature. The luminescence generated from the samples was quantitated using a LJL Analyst plate reader. Data analysis was performed using GraphPad Prism 4.0.

Assay [2] has as its system NCI-H146 human small cell lung carcinoma cells. Description: Cellular viability of human tumor cell line NCI-H146 (MTS assay). Type of assay: cell-based. Particulars: 10% human serum, 48 hours of compound treatment. On the procedure:
NCI-H146 (ATCC, Manassas, Va.) human small cell lung carcinoma cells were plated 50,000 cells per well in 96-well tissue culture plates in a total volume of 100 μL tissue culture medium supplemented with 10% human serum (Invitrogen, Carlsbad, Calif.) and treated with a 2-fold serial dilution of the compounds of interest from 10 μM to […].
Each concentration was tested in duplicate at least 3 separate times. The number of viable cells following 48 hours of compound treatment was determined using the […] 96® Aqueous non-radioactive cell proliferation MTS assay according to manufacturer's recommendations (Promega Corp., Madison, Wis.).
(In general: Formazan colour is commonly taken as a measure of viable cells.)

T1 sequence (P10415 whole entry, species assumed): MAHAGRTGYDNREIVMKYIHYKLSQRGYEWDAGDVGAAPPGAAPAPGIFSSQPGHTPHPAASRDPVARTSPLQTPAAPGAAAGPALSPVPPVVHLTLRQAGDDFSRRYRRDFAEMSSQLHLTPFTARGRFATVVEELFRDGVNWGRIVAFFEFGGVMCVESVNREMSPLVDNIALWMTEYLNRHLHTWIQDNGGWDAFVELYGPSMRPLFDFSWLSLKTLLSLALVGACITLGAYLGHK
Chain of Bcl-xL (GST-Bcl-xL) (Q07817 whole entry, species assumed): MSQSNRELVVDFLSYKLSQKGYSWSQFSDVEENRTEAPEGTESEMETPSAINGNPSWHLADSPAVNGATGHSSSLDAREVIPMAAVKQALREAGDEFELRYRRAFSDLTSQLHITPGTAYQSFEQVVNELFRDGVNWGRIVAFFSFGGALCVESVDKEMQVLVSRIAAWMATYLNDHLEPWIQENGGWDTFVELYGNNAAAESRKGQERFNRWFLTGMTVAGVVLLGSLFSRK

Turning to `N#Cc1ncccc1-c1ccc(OCCCc2sc(N3CCc4cccc(C(=O)Nc5nc6ccccc6s5)c4C3)nc2C(=O)O)cc1` [Example 58, 2-[8-(Benzothiazol-2-ylcarbamoyl)-3,4-dihydro-1H-isoquinolin-2-yl]-5-{3-[4-(2-cyano-pyridin-3-yl)-phenoxy]-propyl}-thiazole-4-carboxylic acid], the values for the Ki on Bcl-2 (GST-Bcl-2) and at Bcl-xL (GST-Bcl-xL) were 310 nM and 0.5 nM, respectively. Besides, the EC50 in assay [1] was found to be 1300 nM.

As for `O=C(Nc1nc2ccccc2s1)c1cccc2c1CN(c1nc(C(=O)O)c(CCCOc3ccc(N4CCNCC4)cc3)s1)CC2` [Example 64, 2-[8-(Benzothiazol-2-ylcarbamoyl)-3,4-dihydro-1H-isoquinolin-2-yl]-5-[3-(4-piperazin-1-yl-phenoxy)-propyl]-thiazole-4-carboxylic acid], the inhibitory constant (Ki) – broadly, the dissociation constant of the complex between target and ligand, obtained from inhibition or displacement – stood at 90 nM at Bcl-2 (GST-Bcl-2) and 0.05 nM on Bcl-xL (GST-Bcl-xL). For the same compound, in assay [1], the EC50 came out at 310 nM.

As for `CN(C)CC#Cc1ccc(OCCCc2sc(N3CCc4cccc(C(=O)Nc5nc6ccccc6s5)c4C3)nc2C(=O)O)cc1` [Example 74, 2-[8-(Benzothiazol-2-ylcarbamoyl)-3,4-dihydro-1H-isoquinolin-2-yl]-5-{3-[4-(3-dimethylamino-prop-1-ynyl)-phenoxy]-propyl}-thiazole-4-carboxylic acid], the inhibition constant Ki on Bcl-2 (GST-Bcl-2) stood at 60 nM; on Bcl-xL (GST-Bcl-xL), 0.05 nM. Further, the EC50 in the assay on platelets was 21 nM; in assay [2] it was 710 nM; in assay [1], 7 nM.

Regarding `O=C(Nc1nc2ccccc2s1)c1cccc2c1CN(c1nc(C(=O)O)c(CCCOc3ccc(-c4ncccn4)cc3)s1)CC2` [Example 81, 2-[8-(Benzothiazol-2-ylcarbamoyl)-3,4-dihydro-1H-isoquinolin-2-yl]-5-[3-(4-pyrimidin-2-yl-phenoxy)-propyl]-thiazole-4-carboxylic acid], the Ki was 110 nM at Bcl-2 (GST-Bcl-2) and 0.05 nM at Bcl-xL (GST-Bcl-xL). Further, the EC50 in assay [1] was found to be 10 nM.

Take `CN1CCN(c2ccc(OCCCc3sc(N4CCc5cccc(C(=O)Nc6nc7ccccc7s6)c5C4)nc3C(=O)O)cc2)CC1` [Example 82, 2-[8-(Benzothiazol-2-ylcarbamoyl)-3,4-dihydro-1H-isoquinolin-2-yl]-5-{3-[4-(4-methyl-piperazin-1-yl)-phenoxy]-propyl}-thiazole-4-carboxylic acid]: the inhibition constant Ki on Bcl-2 (GST-Bcl-2) is 120 nM; on Bcl-xL (GST-Bcl-xL) it was 0.05 nM. The EC50 in assay [2] is 2500 nM; in assay [1], 30 nM.

`CN1CCN(CCCNc2ncnc3c2cnn3-c2ccc(OCCCc3sc(N4CCc5cccc(C(=O)Nc6nc7ccccc7s6)c5C4)nc3C(=O)O)cc2)CC1` [Example 84, 2-(8-(benzo[d]thiazol-2-ylcarbamoyl)-3,4-dihydroisoquinolin-2(1H)-yl)-5-(3-(4-(4-(3-(4-methylpiperazin-1-yl)propylamino)-1H-pyrazolo[3,4-d]pyrimidin-1-yl)phenoxy)propyl)thiazole-4-carboxylic acid]: the Ki at Bcl-2 (GST-Bcl-2) amounted to 140 nM; on Bcl-xL (GST-Bcl-xL), 0.05 nM. Further, the EC50 in assay [2] was found to be 610 nM; in assay [1], 22 nM.

Consider `O=C(Nc1nc2ccccc2s1)c1cccc2c1CN(c1nc(C(=O)O)c(CCCOc3ccc(OCCN4CCOCC4)cc3)s1)CC2` [Example 88, 2-[8-(Benzothiazol-2-ylcarbamoyl)-3,4-dihydro-1H-isoquinolin-2-yl]-5-{3-[4-(2-morpholin-4-yl-ethoxy)-phenoxy]-propyl}-thiazole-4-carboxylic acid], for which the inhibition constant Ki on Bcl-2 (GST-Bcl-2) was 300 nM; on Bcl-xL (GST-Bcl-xL) it was 0.05 nM. Also, the EC50 was found to be 3 nM in the assay with platelets and 28 nM in assay [1].

In the case of `CN1CCN(c2ccc(OCCCc3sc(N4CCc5cccc(C(=O)Nc6nc7ccccc7s6)c5C4)nc3C(=O)O)c(F)c2)CC1` [Example 93, 2-[8-(Benzothiazol-2-ylcarbamoyl)-3,4-dihydro-1H-isoquinolin-2-yl]-5-{3-[2-fluoro-4-(4-methyl-piperazin-1-yl)-phenoxy]-propyl}-thiazole-4-carboxylic acid], the figures for the Ki on Bcl-2 (GST-Bcl-2) and at Bcl-xL (GST-Bcl-xL) were 155 nM and 0.05 nM, respectively. For the same compound, the EC50 in assay [2] was 3200 nM.

Take `CN1CCN(c2ccc(OCCCc3ccc(N4CCc5cccc(C(=O)Nc6nc7ccccc7s6)c5C4)nc3C(=O)O)cc2)CC1` [Example 94, 6-[8-(Benzothiazol-2-ylcarbamoyl)-3,4-dihydro-1H-isoquinolin-2-yl]-3-{3-[4-(4-methyl-piperazin-1-yl)-phenoxy]-propyl}-pyridine-2-carboxylic acid]: the inhibitory constant (Ki) turned out to be 572 nM at Bcl-2 (GST-Bcl-2) and 2 nM at Bcl-xL (GST-Bcl-xL). Besides, the EC50 in assay [1] was 448 nM.

Take `CN(C)CC#Cc1ccc(OCCCc2ccc(N3CCc4cccc(C(=O)Nc5nc6ccccc6s5)c4C3)nc2C(=O)O)c(F)c1` [Example 97, 6-(8-(benzo[d]thiazol-2-ylcarbamoyl)-3,4-dihydroisoquinolin-2(1H)-yl)-3-(3-(4-(3-(dimethylamino)prop-1-ynyl)-2-fluorophenoxy)propyl)picolinic acid]: the values for the Ki at Bcl-2 (GST-Bcl-2) and at Bcl-xL (GST-Bcl-xL) were 272 nM and 0.05 nM, respectively. Also, the EC50 was 3 nM in the assay with platelets, 2400 nM in assay [2] and 26 nM in assay [1].

For `CN(C)CCCc1ccc(OCCCc2ccc(N3CCc4cccc(C(=O)Nc5nc6ccccc6s5)c4C3)nc2C(=O)O)c(F)c1` [Example 100, 6-[8-(Benzothiazol-2-ylcarbamoyl)-3,4-dihydro-1H-isoquinolin-2-yl]-3-{3-[4-(3-dimethylamino-propyl)-2-fluoro-phenoxy]-propyl}-pyridine-2-carboxylic acid], the values for the Ki on Bcl-2 (GST-Bcl-2) and on Bcl-xL (GST-Bcl-xL) were 219 nM and 0.5 nM, respectively. Moreover, the EC50 in assay [1] stood at 399 nM.
